# “And” between values parts separate entries of the source, which are not always exact repeats. Equal entries are not always repeated.
# Experiments:
# [1] = system: Laboratory Standard Strain Eimeria tenella; experiment: Anticoccidial effect in White Leghorn chicks infected with laboratory standard strain Eimeria tenella, drugs in feed for 9 days (Table 1); type: in vivo; design: Caecal Lesion: scale not given here; details: for OPG: day7; for Caecal Lesion: day-8
# Protocol: (§1) The effect of the drugs to coccidiosis was examined using chicks. Namely, nine-day-old White Leghorn male chicks were divided into groups each of which consists of 3 chicks, and 5×10^4 sporulated oocysts per chick of laboratory standard strain Eimeria tenella were orally inoculated into the chicks in all groups except for the control group in which the chicks were not infected and not dosed with the drugs, at 24 hours after the start of dosing. Prescribed amounts of respective plant components dried and crushed and monensin sodium or salinomycin sodium were added to the basal feed (SDL No. 1: Nippon Haigo Shiryo), and continuously administered by the free ingesting method for 9 days from 24 hours before infection to 8 days after infection. The weight of each chick was measured, and the bloody dropping were observed. Further, the chicks were autopsied at day-8 after infection to examine the caecel lesion. Thus, the anticoccidial effect of the administered test drugs was determined.
# Note ^1) Weight gain ratio = (Average weight gain for each test
# Note ^2) The bloody feces index is indicated by the number of bloody
# Note ^3) The caecal lesion is indicated by an average score when
# Note ^5) The ND means "not detected".
# [2] = Acute toxicity by oral administration to mice; details: mouse, in vivo
# [3] = system: Laboratory Standard Strain Eimeria tenella (AMD); experiment: Combined effect of ionophore antibiotics and Rhizophoraceae bark in infected chicks (Table 5); type: in vivo
# Protocol: as §1
# The combined administration effect of the ionophore antibiotics and Rhizophoraceae bark was examined, by an infection experiment method in accordance with the method in Example 1.
# [4] = system: Field Isolate Eimeria tenella (AMD); experiment: Anticoccidial effect in chicks infected with field isolate Eimeria tenella (AMD) resistant against ionophore antibiotics, 30,000 oocysts per chick (Tables 2-4); type: in vivo
# [5] = system: Field Chicken Coocidia of Mixed Species; experiment: Combined effect of monensin and Rhizophoraceae bark in chicks infected with field coccidia of mixed species, 10,000 oocysts per chick (Table 6); type: in vivo, mixed strain containing five or more kinds of coccidia; details: 80 ppm in feed
# Protocol: as §1
# Using the mixed strain (large size oocysts: 5%, middle size oocysts: 72%, small size oocysts: 23%) collected in the field and containing five or more kinds of coccidia, the combined administration effect of monensin and Rhizophoraceae bark against chicks infected with 10,000 oocysts per chick was examined, by an infection experiment method in accordance with the method in Example 1. In Table 6, the general intestine lesion value was obtained by converting the sum of values judged by the five steps from 0 to +4 to a value per chick, for the lesion of upper, middle and lower parts of small intestine and caecum, according to the method described in Johnson and Reid, Exp. Parasitol. 28, 30-36 (1970). Other determinations were carried out in the same manner as with Example 1.
smiles,measurement,setting,value
"C=CCc1ccc(O)c(-c2ccc(O)c(CC=C)c2)c1 [Honokiol, honokiol]",Mortality,[1]; 125 ppm in feed,1/3
same,No. of Bloody Droppings,[1]; 125 ppm in feed,13.3
same,Weight Gain Ratio,[1]; 125 ppm in feed,41.6%
same,OPG,[1]; 125 ppm in feed,5.1 log
same,Caecal Lesion,[1]; 125 ppm in feed,4.0
same,Mortality,[1]; 500 ppm in feed,0/3
same,No. of Bloody Droppings,[1]; 500 ppm in feed,1.0
same,Weight Gain Ratio,[1]; 500 ppm in feed,99.4%
same,OPG,[1]; 500 ppm in feed,4.9 log
same,Caecal Lesion,[1]; 500 ppm in feed,3.3
C=CCc1ccc(O)c(-c2cc(CC=C)ccc2O)c1 [Magnolol],LD50,[2],2200 mg/kg
same,Mortality,[1]; 125 ppm in feed,0/3
same,No. of Bloody Droppings,[1]; 125 ppm in feed,13.3
same,Weight Gain Ratio,[1]; 125 ppm in feed,62.5%
same,OPG,[1]; 125 ppm in feed,5.3 log
same,Caecal Lesion,[1]; 125 ppm in feed,4.0
same,Mortality,[1]; 250 ppm in feed,0/3
same,No. of Bloody Droppings,[1]; 250 ppm in feed,3.7
same,Weight Gain Ratio,[1]; 250 ppm in feed,89.3%
same,OPG,[1]; 250 ppm in feed,5.8 log
same,Caecal Lesion,[1]; 250 ppm in feed,4.0
same,Mortality,[1]; 500 ppm in feed,0/3
same,No. of Bloody Droppings,[1]; 500 ppm in feed,1.3
same,Weight Gain Ratio,[1]; 500 ppm in feed,94.5%
same,OPG,[1]; 500 ppm in feed,3.2 log
same,Caecal Lesion,[1]; 500 ppm in feed,3.3
"CCC1(C2OC(C3OC(O)(CO)C(C)CC3C)CC2C)CCC(C2(C)CCC3(CC(O)C(C)C(C(C)C(OC)C(C)C(=O)O)O3)O2)O1 (stereo not shown) [Monensin, monensin sodium]",Caecal Lesion,[3]; 80 ppm in feed,3.2
same,Mortality,[3]; 80 ppm in feed,0/9
same,No. of Bloody Droppings,[3]; 80 ppm in feed,5.0
same,Weight Gain Ratio,[3]; 80 ppm in feed,88%
same,Caecal Lesion,[4]; 80 ppm in feed,4.0 and 3.8
same,Mortality,[4]; 80 ppm in feed,0/5
same,No. of Bloody Droppings,[4]; 80 ppm in feed,10.0 and 9.0
same,OPG,[4]; 80 ppm in feed,6.2 log and 6.1 log
same,Weight Gain Ratio,[4]; 80 ppm in feed,54.8% and 72.3%
same,Caecal Lesion,[4]; 100 ppm in feed,4.0
same,Mortality,[4]; 100 ppm in feed,0/5
same,No. of Bloody Droppings,[4]; 100 ppm in feed,8.0
same,OPG,[4]; 100 ppm in feed,6.1 log
same,Weight Gain Ratio,[4]; 100 ppm in feed,72.6%
same,Mortality,[4]; 160 ppm in feed,0/5
same,No. of Bloody Droppings,[4]; 160 ppm in feed,0
same,OPG,[4]; 160 ppm in feed,4.7 log
same,Weight Gain Ratio,[4]; 160 ppm in feed,81.5% and 86.5%
same,Caecal Lesion,[4]; 240 ppm in feed,0
same,Mortality,[4]; 240 ppm in feed,0/5
same,No. of Bloody Droppings,[4]; 240 ppm in feed,0
same,Weight Gain Ratio,[4]; 240 ppm in feed,46.5%
same,concentration at which sufficient antiprotozoal activity is shown,[4]; in feed,≥ 160 ppm
same,Mortality,[5],1/6
same,No. of Bloody Droppings,[5],6.0
same,Weight Gain Ratio,[5],89%
same,Caecal Lesion,[5]; general intestine lesion value,5.5
same,Mortality,[1]; 40 ppm in feed,1/3
same,No. of Bloody Droppings,[1]; 40 ppm in feed,13.3
same,Weight Gain Ratio,[1]; 40 ppm in feed,36.7%
same,OPG,[1]; 40 ppm in feed,4.5 log
same,Caecal Lesion,[1]; 40 ppm in feed,4.0
same,Mortality,[1]; 60 ppm in feed,0/3
same,No. of Bloody Droppings,[1]; 60 ppm in feed,7.3
same,Weight Gain Ratio,[1]; 60 ppm in feed,92.9%
same,OPG,[1]; 60 ppm in feed,4.6 log
same,Caecal Lesion,[1]; 60 ppm in feed,4.0
same,Mortality,[1]; 80 ppm in feed,0/6
same,No. of Bloody Droppings,[1]; 80 ppm in feed,1.0
same,Weight Gain Ratio,[1]; 80 ppm in feed,103.2%
same,OPG,[1]; 80 ppm in feed,4.3 log
same,Caecal Lesion,[1]; 80 ppm in feed,2.2
same,Mortality,[1]; 120 ppm in feed,0/6
same,No. of Bloody Droppings,[1]; 120 ppm in feed,0
same,Weight Gain Ratio,[1]; 120 ppm in feed,103.2%
same,OPG,[1]; 120 ppm in feed,3.4 log
same,Caecal Lesion,[1]; 120 ppm in feed,0
"CC[C@@H](C(=O)[C@@H](C)[C@@H](O)[C@H](C)[C@@H]1O[C@@H]([C@@H](CC)C(=O)O)CC[C@@H]1C)[C@H]1O[C@]2(C=C[C@@H](O)[C@]3(CC[C@@](C)([C@H]4CC[C@](O)(CC)[C@H](C)O4)O3)O2)[C@H](C)C[C@@H]1C [Salinomycin, salinomycin sodium]",Caecal Lesion,[3]; 50 ppm in feed,3.6
same,Mortality,[3]; 50 ppm in feed,1/9
same,No. of Bloody Droppings,[3]; 50 ppm in feed,7.0
same,Weight Gain Ratio,[3]; 50 ppm in feed,62%
same,Caecal Lesion,[4]; 50 ppm in feed,3.2
same,Mortality,[4]; 50 ppm in feed,0/5
same,No. of Bloody Droppings,[4]; 50 ppm in feed,9.0
same,OPG,[4]; 50 ppm in feed,5.8 log
same,Weight Gain Ratio,[4]; 50 ppm in feed,80.3%
